# Results published in PubChem BioAssay AID1845198 (Molecular Pharmacology Branch, DTP, NCI, 2023).
# System: 425362-245-T-J1 tumor spheroids, viability % test/control
# Assay: Anticancer human tumor 425362-245-T-J1 patient-derived melanoma cell line growth inhibition
# Settings: spheroids with HUVEC and MSC; for IC50: curve of first compound; for viability, T/C: stronger effect = lower value
# Procedure, shortened: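 Single agents and combinations were tested on spheroids built from tumor cells plus HUVEC and hMSC, at half-log dilutions starting at or near clinical Cmax, else 10 microM; final DMSO 0.25% (v/v).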
# [1] = second compound 1 µM, first compound 0.00949 µM
# [2] = second compound 1 µM, first compound 0.03 µM
# [3] = second compound 1 µM, first compound 0.0949 µM
# [4] = second compound 1 µM, first compound 0.3 µM
# [5] = second compound 1 µM, first compound 0.949 µM
# [6] = second compound 1 µM, first compound 3 µM
# [7] = second compound 3.16 µM, first compound 0.00949 µM
# [8] = second compound 3.16 µM, first compound 0.03 µM
# [9] = second compound 3.16 µM, first compound 0.0949 µM
# [10] = second compound 3.16 µM, first compound 0.3 µM
# [11] = second compound 3.16 µM, first compound 0.949 µM
# [12] = second compound 3.16 µM, first compound 3 µM
# [13] = second compound 10 µM, first compound 0.00949 µM
# [14] = second compound 10 µM, first compound 0.03 µM
# [15] = second compound 10 µM, first compound 0.0949 µM
# [16] = second compound 10 µM, first compound 0.3 µM
# [17] = second compound 10 µM, first compound 0.949 µM
# [18] = second compound 10 µM, first compound 3 µM
# [19] = second compound 31.6 µM, first compound 0.00949 µM
# [20] = second compound 31.6 µM, first compound 0.03 µM
# [21] = second compound 31.6 µM, first compound 0.0949 µM
# [22] = second compound 31.6 µM, first compound 0.3 µM
# [23] = second compound 31.6 µM, first compound 0.949 µM
# [24] = second compound 31.6 µM, first compound 3 µM
# [25] = second compound 100 µM, first compound 0.00949 µM
# [26] = second compound 100 µM, first compound 0.03 µM
# [27] = second compound 100 µM, first compound 0.0949 µM
# [28] = second compound 100 µM, first compound 0.3 µM
# [29] = second compound 100 µM, first compound 0.949 µM
# [30] = second compound 100 µM, first compound 3 µM
# 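Also: spheroids exposed to agents for 7 days.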
Compound,IC50 (second compound 1 µM) [nM],IC50 (second compound 3.16 µM) [nM],IC50 (second compound 10 µM) [nM],IC50 (second compound 31.6 µM) [nM],IC50 (second compound 100 µM) [nM],"viability, T/C [3] [%]","viability, T/C [4] [%]","viability, T/C [5] [%]","viability, T/C [6] [%]","viability, T/C [9] [%]","viability, T/C [10] [%]","viability, T/C [11] [%]","viability, T/C [12] [%]","viability, T/C [15] [%]","viability, T/C [16] [%]","viability, T/C [17] [%]","viability, T/C [18] [%]","viability, T/C [21] [%]","viability, T/C [22] [%]","viability, T/C [23] [%]",also measured
CNCc1ccc(-c2cc(-c3nc(-c4ccc(S(=O)(=O)C(C)C)cc4)cnc3N)on2)cc1 + Cn1nnc2c(C(N)=O)ncn2c1=O,82.2,142,120,109,63.7,45.2,6.29,3.41,0.13,72.2,9.15,3.94,0.13,61,9.28,2.96,0.12,56.2,7.24,2.97,"viability, T/C [1]: 103%; viability, T/C [2]: 89.2%; viability, T/C [7]: 99.2%; viability, T/C [8]: 93.1%; viability, T/C [13]: 111%; viability, T/C [14]: 101%; viability, T/C [19]: 95.4%; viability, T/C [20]: 105%; viability, T/C [24]: 0.11%; viability, T/C [25]: 92.7%; viability, T/C [26]: 81.9%; viability, T/C [27]: 33.1%; viability, T/C [28]: 4.28%; viability, T/C [29]: 4.13%; viability, T/C [30]: 0.16%"
Cn1ncnc1[C@H]1c2n[nH]c(=O)c3cc(F)cc(c23)N[C@@H]1c1ccc(F)cc1 + Cn1nnc2c(C(N)=O)ncn2c1=O,24.5,13.5,12.6,< 9.49,< 9.49,27,12.1,9.08,2.19,19.1,14.3,7.67,2.76,15.8,13.2,7,3.32,9.07,7.7,5.14,"viability, T/C [1]: 59.9%; viability, T/C [2]: 48.6%; viability, T/C [7]: 54.8%; viability, T/C [8]: 40.1%; viability, T/C [13]: 57.8%; viability, T/C [14]: 26.8%; viability, T/C [19]: 27.6%; viability, T/C [20]: 12%; viability, T/C [24]: 2.14%; viability, T/C [25]: 7.96%; viability, T/C [26]: 7.44%; viability, T/C [27]: 5.25%; viability, T/C [28]: 4.75%; viability, T/C [29]: 4.31%; viability, T/C [30]: 2.46%"
O=C(c1cc(Cc2n[nH]c(=O)c3ccccc23)ccc1F)N1CCN(C(=O)C2CC2)CC1 + Cn1nnc2c(C(N)=O)ncn2c1=O,3100,3280,2520,2040,233,88.6,86.2,71.6,55.6,97.8,87.7,83.5,54.6,101,85.2,80.2,45.8,96.5,83.8,69.7,"viability, T/C (second compound 1 µM, first compound 9.49 µM): 12%; viability, T/C (second compound 1 µM, first compound 30 µM): 6.69%; viability, T/C (second compound 3.16 µM, first compound 9.49 µM): 12.8%; viability, T/C (second compound 3.16 µM, first compound 30 µM): 7.75%; viability, T/C (second compound 10 µM, first compound 9.49 µM): 13.1%; viability, T/C (second compound 10 µM, first compound 30 µM): 6.66%; viability, T/C [24]: 44.4%; viability, T/C (second compound 31.6 µM, first compound 9.49 µM): 6.18%; viability, T/C (second compound 31.6 µM, first compound 30 µM): 6.01%; viability, T/C [27]: 68.1%; viability, T/C [28]: 43.8%; viability, T/C [29]: 26.7%; viability, T/C [30]: 10%; viability, T/C (second compound 100 µM, first compound 9.49 µM): 4.29%; viability, T/C (second compound 100 µM, first compound 30 µM): 3.96%"
